Results from the supplement of paper PMC10307832.

Experiments:
Assay in all cases: relative viability (nuclei count vs DMSO), 5 days (fraction); higher = more cells survive
[1] = compound: CN(C)CC1=CC(=CC=C1)N=C(C2=CC=CC=C2)C3=C(NC4=C3C=CC(=C4)C(=O)N(C)C)O + CC1(C)CCC(c2ccc(Cl)cc2)=C(CN2CCN(c3ccc(C(=O)NS(=O)(=O)c4ccc(N[C@H](CCN5CCOCC5)CSc5ccccc5)c(S(=O)(=O)C(F)(F)F)c4)cc3)CC2)C1 [Navitoclax] (partner 0.5 µM)
Method in brief: (§1)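 A single step with final 0.05% Triton X-100, 1% formaldehyde and 1 ug/ml Hoechst fixed the cells and stained nuclei 5 days after treatment. Lung cancer cell lines in 1536-well plates had been treated by pin tool the day after seeding with one drug alone or a fixed anchor-drug dose plus five library-drug doses (not always all listed) in √10 steps, and nuclei were counted on 4× images. Relative viability is the ratio of nuclei in treated wells to nuclei in vehicle wells, taken as the median of duplicate plates.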

[2] = compound: CN(C)CC1=CC(=CC=C1)N=C(C2=CC=CC=C2)C3=C(NC4=C3C=CC(=C4)C(=O)N(C)C)O + Cc1nc(NC(=O)N2CCC[C@H]2C(N)=O)sc1-c1ccnc(C(C)(C)C(F)(F)F)c1 [Alpelisib] (partner 2 µM)
Method in brief: as §1

[3] = compound: CN(C)CC1=CC(=CC=C1)N=C(C2=CC=CC=C2)C3=C(NC4=C3C=CC(=C4)C(=O)N(C)C)O + O=C(CCCCCCC(=O)Nc1ccccc1)NO [Vorinostat] (partner 1 µM)
Method in brief: as §1

[4] = compound: CN(C)CC1=CC(=CC=C1)N=C(C2=CC=CC=C2)C3=C(NC4=C3C=CC(=C4)C(=O)N(C)C)O + C[C@]1(O)C[C@@H](c2nc(-c3ccc4ccc(-c5ccccc5)nc4c3)c3c(N)nccn32)C1 [Linsitinib] (partner 1 µM)
Method in brief: as §1

With NCI-H727 as the cell line, how does the relative viability ([1]; first compound 0.08 µM) read?
Its relative viability is 0.574.

What about the relative viability ([1]; first compound 0.253 µM) of the same cell line?
Its relative viability is 0.428.

And the relative viability ([1]; first compound 0.8 µM)?
The relative viability was 0.371.

What about the relative viability ([1]; first compound 2.53 µM) of the same cell line?
The relative viability was 0.471.

What about the relative viability ([1]; first compound 8 µM) of the same cell line?
Its relative viability is 0.498.

What about the relative viability ([2]; first compound 0.08 µM) of the same cell line?
Its relative viability is 0.631.

What about the relative viability ([2]; first compound 0.253 µM) of the same cell line?
Its relative viability is 0.564.

What about the relative viability ([2]; first compound 0.8 µM) of the same cell line?
The relative viability was 0.621.

What about the relative viability ([2]; first compound 2.53 µM) of the same cell line?
The relative viability was 0.603.

And the relative viability ([2]; first compound 8 µM)?
Its relative viability is 0.608.

And the relative viability ([3]; first compound 0.253 µM)?
Its relative viability is 0.972.

What about the relative viability ([3]; first compound 0.8 µM) of the same cell line?
Its relative viability is 1.35.

And the relative viability ([3]; first compound 2.53 µM)?
The relative viability was 1.45.

What about the relative viability ([3]; first compound 8 µM) of the same cell line?
The relative viability was 1.23.

And the relative viability ([4]; first compound 0.08 µM)?
The relative viability was 0.253.

And the relative viability ([4]; first compound 0.253 µM)?
The relative viability was 0.349.

And the relative viability ([4]; first compound 0.8 µM)?
The relative viability was 0.197.

And the relative viability ([4]; first compound 2.53 µM)?
The relative viability was 0.281.

And the relative viability ([4]; first compound 8 µM)?
Its relative viability is 0.24.

LOU-NH91 was tested. Which relative viability ([1]; first compound 0.08 µM) did it give?
The relative viability was 0.756.

What about the relative viability ([1]; first compound 0.253 µM) of the same cell line?
The relative viability was 0.687.

What about the relative viability ([1]; first compound 0.8 µM) of the same cell line?
The relative viability was 0.548.

And the relative viability ([1]; first compound 2.53 µM)?
Its relative viability is 0.653.

And the relative viability ([1]; first compound 8 µM)?
Its relative viability is 0.638.

What about the relative viability ([2]; first compound 0.08 µM) of the same cell line?
Its relative viability is 0.743.

And the relative viability ([2]; first compound 0.253 µM)?
Its relative viability is 0.72.

What about the relative viability ([2]; first compound 0.8 µM) of the same cell line?
The relative viability was 0.577.

And the relative viability ([2]; first compound 2.53 µM)?
Its relative viability is 0.718.

And the relative viability ([2]; first compound 8 µM)?
Its relative viability is 0.696.

And the relative viability ([3]; first compound 0.08 µM)?
Its relative viability is 0.892.

What about the relative viability ([3]; first compound 0.253 µM) of the same cell line?
Its relative viability is 0.97.

What about the relative viability ([3]; first compound 0.8 µM) of the same cell line?
The relative viability was 0.754.

What about the relative viability ([3]; first compound 2.53 µM) of the same cell line?
The relative viability was 0.87.

What about the relative viability ([3]; first compound 8 µM) of the same cell line?
Its relative viability is 0.872.

What about the relative viability ([4]; first compound 0.08 µM) of the same cell line?
The relative viability was 0.975.

What about the relative viability ([4]; first compound 0.253 µM) of the same cell line?
The relative viability was 0.946.

What about the relative viability ([4]; first compound 0.8 µM) of the same cell line?
Its relative viability is 0.68.

And the relative viability ([4]; first compound 2.53 µM)?
The relative viability was 0.925.

What about the relative viability ([4]; first compound 8 µM) of the same cell line?
The relative viability was 0.952.

LXF-289 was tested. Which relative viability ([1]; first compound 0.08 µM) did it give?
Its relative viability is 0.959.

What about the relative viability ([1]; first compound 0.253 µM) of the same cell line?
Its relative viability is 0.911.

What about the relative viability ([1]; first compound 0.8 µM) of the same cell line?
The relative viability was 0.946.

And the relative viability ([1]; first compound 2.53 µM)?
The relative viability was 0.945.

What about the relative viability ([1]; first compound 8 µM) of the same cell line?
The relative viability was 0.809.

And the relative viability ([2]; first compound 0.08 µM)?
Its relative viability is 1.04.

What about the relative viability ([2]; first compound 0.253 µM) of the same cell line?
Its relative viability is 1.

What about the relative viability ([2]; first compound 0.8 µM) of the same cell line?
The relative viability was 0.966.

What about the relative viability ([2]; first compound 2.53 µM) of the same cell line?
Its relative viability is 0.971.

What about the relative viability ([2]; first compound 8 µM) of the same cell line?
Its relative viability is 0.941.

What about the relative viability ([3]; first compound 0.08 µM) of the same cell line?
Its relative viability is 0.778.

And the relative viability ([3]; first compound 0.253 µM)?
The relative viability was 0.745.

What about the relative viability ([3]; first compound 0.8 µM) of the same cell line?
Its relative viability is 0.756.

What about the relative viability ([3]; first compound 2.53 µM) of the same cell line?
Its relative viability is 0.72.

What about the relative viability ([3]; first compound 8 µM) of the same cell line?
Its relative viability is 0.727.

And the relative viability ([4]; first compound 0.08 µM)?
Its relative viability is 0.935.

And the relative viability ([4]; first compound 0.253 µM)?
The relative viability was 0.931.

What about the relative viability ([4]; first compound 0.8 µM) of the same cell line?
Its relative viability is 0.955.

What about the relative viability ([4]; first compound 2.53 µM) of the same cell line?
The relative viability was 0.857.

What about the relative viability ([4]; first compound 8 µM) of the same cell line?
Its relative viability is 0.915.

What does the source list for NCI-H1666?
relative viability ([1]; first compound 0.08 µM): 0.983; relative viability ([1]; first compound 0.253 µM): 1.14; relative viability ([1]; first compound 0.8 µM): 1.02; relative viability ([1]; first compound 2.53 µM): 1.07; relative viability ([1]; first compound 8 µM): 1.1; relative viability ([2]; first compound 0.08 µM): 1.07; relative viability ([2]; first compound 0.253 µM): 0.98; relative viability ([2]; first compound 0.8 µM): 1.01; relative viability ([2]; first compound 2.53 µM): 1.18; relative viability ([2]; first compound 8 µM): 0.946; relative viability ([3]; first compound 0.08 µM): 1.06; relative viability ([3]; first compound 0.253 µM): 1.09; relative viability ([3]; first compound 0.8 µM): 0.956; relative viability ([3]; first compound 2.53 µM): 1.01; relative viability ([3]; first compound 8 µM): 1.34; relative viability ([4]; first compound 0.08 µM): 0.695; relative viability ([4]; first compound 0.253 µM): 0.934; relative viability ([4]; first compound 0.8 µM): 0.741; relative viability ([4]; first compound 2.53 µM): 0.941; relative viability ([4]; first compound 8 µM): 0.731

NCI-H441 was tested. Which relative viability ([1]; first compound 0.08 µM) did it give?
Its relative viability is 0.632.

What about the relative viability ([1]; first compound 0.253 µM) of the same cell line?
The relative viability was 0.391.

What about the relative viability ([1]; first compound 0.8 µM) of the same cell line?
Its relative viability is 0.619.

And the relative viability ([1]; first compound 2.53 µM)?
Its relative viability is 0.647.

What about the relative viability ([1]; first compound 8 µM) of the same cell line?
The relative viability was 0.565.

What about the relative viability ([2]; first compound 0.08 µM) of the same cell line?
The relative viability was 0.717.

And the relative viability ([2]; first compound 0.253 µM)?
Its relative viability is 0.761.

What about the relative viability ([2]; first compound 0.8 µM) of the same cell line?
The relative viability was 0.642.

What about the relative viability ([2]; first compound 2.53 µM) of the same cell line?
Its relative viability is 0.834.

And the relative viability ([2]; first compound 8 µM)?
Its relative viability is 0.495.

What about the relative viability ([3]; first compound 0.08 µM) of the same cell line?
Its relative viability is 0.852.

And the relative viability ([3]; first compound 0.253 µM)?
Its relative viability is 0.86.

And the relative viability ([3]; first compound 0.8 µM)?
Its relative viability is 1.01.

What about the relative viability ([3]; first compound 2.53 µM) of the same cell line?
The relative viability was 0.613.

What about the relative viability ([3]; first compound 8 µM) of the same cell line?
The relative viability was 0.805.

What about the relative viability ([4]; first compound 0.08 µM) of the same cell line?
The relative viability was 0.593.

And the relative viability ([4]; first compound 0.253 µM)?
Its relative viability is 0.539.

What about the relative viability ([4]; first compound 0.8 µM) of the same cell line?
The relative viability was 0.507.

And the relative viability ([4]; first compound 2.53 µM)?
The relative viability was 0.496.

And the relative viability ([4]; first compound 8 µM)?
Its relative viability is 0.418.

What does the source list for SK-LU-1?
relative viability ([1]; first compound 0.08 µM): 1.05; relative viability ([1]; first compound 0.253 µM): 0.898; relative viability ([1]; first compound 0.8 µM): 0.778; relative viability ([1]; first compound 2.53 µM): 0.651; relative viability ([1]; first compound 8 µM): 0.791; relative viability ([2]; first compound 0.08 µM): 0.883; relative viability ([2]; first compound 0.253 µM): 1.01; relative viability ([2]; first compound 0.8 µM): 0.992; relative viability ([2]; first compound 2.53 µM): 0.87; relative viability ([2]; first compound 8 µM): 0.597; relative viability ([3]; first compound 0.08 µM): 0.796; relative viability ([3]; first compound 0.253 µM): 0.861; relative viability ([3]; first compound 0.8 µM): 0.735; relative viability ([3]; first compound 2.53 µM): 0.847; relative viability ([3]; first compound 8 µM): 0.581; relative viability ([4]; first compound 0.08 µM): 1.05; relative viability ([4]; first compound 0.253 µM): 1.2; relative viability ([4]; first compound 0.8 µM): 1.27; relative viability ([4]; first compound 2.53 µM): 1.17; relative viability ([4]; first compound 8 µM): 0.77

How did the relative viability ([1]; first compound 0.08 µM) turn out when NCI-H2228 was run?
Its relative viability is 0.868.

What about the relative viability ([1]; first compound 0.253 µM) of the same cell line?
The relative viability was 0.909.

What about the relative viability ([1]; first compound 0.8 µM) of the same cell line?
Its relative viability is 0.731.

What about the relative viability ([1]; first compound 2.53 µM) of the same cell line?
Its relative viability is 0.803.

What about the relative viability ([1]; first compound 8 µM) of the same cell line?
Its relative viability is 0.663.

And the relative viability ([2]; first compound 0.08 µM)?
The relative viability was 0.452.

And the relative viability ([2]; first compound 0.253 µM)?
The relative viability was 0.753.

What about the relative viability ([2]; first compound 0.8 µM) of the same cell line?
The relative viability was 0.859.

And the relative viability ([2]; first compound 2.53 µM)?
Its relative viability is 0.687.

And the relative viability ([2]; first compound 8 µM)?
Its relative viability is 0.588.

And the relative viability ([3]; first compound 0.08 µM)?
Its relative viability is 0.653.

And the relative viability ([3]; first compound 0.253 µM)?
Its relative viability is 0.583.

And the relative viability ([3]; first compound 0.8 µM)?
Its relative viability is 0.977.

What about the relative viability ([3]; first compound 2.53 µM) of the same cell line?
The relative viability was 0.65.

And the relative viability ([3]; first compound 8 µM)?
Its relative viability is 0.542.

And the relative viability ([4]; first compound 0.08 µM)?
The relative viability was 0.66.

And the relative viability ([4]; first compound 0.253 µM)?
The relative viability was 0.541.

What about the relative viability ([4]; first compound 0.8 µM) of the same cell line?
The relative viability was 1.12.

What about the relative viability ([4]; first compound 2.53 µM) of the same cell line?
Its relative viability is 0.63.

And the relative viability ([4]; first compound 8 µM)?
Its relative viability is 0.582.
